Measured values from US9416141B2 (University of Washington through its Center for …, priority 2012, dated 2016).
Structures can show the parent of a compound that is named as a salt.

Test system: hair cells
Assay: Hair cell toxicity assay in zebrafish (neomycin-induced hair cell death, DASPEI staining of neuromasts)
Type: in vivo
Conditions: Danio rerio; for Emax at 25 µM: maximum observed @ 25 μM test compound; for Emax at 25 µM / Emax at 8.3 µM / Emax at 2.8 µM: 200 micromolar neomycin, read-out: Max HC Protection (HCmax, % hair cell survival); for EC50: zebrafish larvae 5-7 dpf, 1 h pre-treatment, then 200 micromolar neomycin + test compound 30 min, read-out: HC50 (concentration that would produce 50% hair cell survival); for Emax at 8.3 µM: maximum observed @ 8.3 μM test compound; for Emax at 2.8 µM: maximum observed @ 2.8 μM test compound
Method: Zebrafish are bred and newly fertilized embryos are collected the week prior and raised at 28.5° C. in petri dishes containing embryo medium. Newly hatched free-swimming larvae are fed paramecium and dry fish food at 4 days post fertilization (dpf) with lights on. For treatment, fish 5-7 dpf are transferred to cell culture baskets and place within a well of a 6-well plate containing 7 milliliters of 1× embryo medium. Typically, tests are done with ten fish per basket but work well with up to 50 fish. All treatment and wash volumes are 7 milliliters. • 1. Fish are pre-treated with test compound for 1 hour. […] Treat with 200 micromolar neomycin (neomycin sulfate, Sigma, St. Louis, Mo., catalog #N1142)+test compound for 30 minutes. • 3. Rinse fish briefly 4 times in embryo medium and add 700 μl of 0.05% DASPEI (2-{4-(dimethylamino)styryl}-N-ethylpyridinium iodide, Molecular Probes, Eugene, Oreg.) and allowed to stain for 15 minutes. • 4. Rinse twice in embryo medium and add 350 μl MS222 (0.55 ug/ml final concentration, 3-aminobenzoic acid ethyl ester, methansulfoneate salt, Sigma, St. Louis, Mo.) to anesthetize. • 5. View with epifluorescence dissecting microscope equipped with a DAPSEI filter set (excitation […], Chroma Technologies, Brattleboro, Vt.). For assessment of initial dose response curves, fish are transferred to wide depression slide with wide-bore pipette. The DASPEI staining of ten neuromasts (SO1, SO2, IO1, IO2, IO3, IO4, M2, MI1, MI2 and O2) on one side of an animal are evaluated. Each neuromast is scored for presence of DASPEI staining (score=2), reduced DASPEI staining (score=1) or absence of DASPEI staining (score=0). Total scores for an animal are tabulated, to give a composite score that can range from 0 to 20. Average scores and standard deviations are calculated for animals in each treatment group. Scores are normalized to control group (vehicle only, no drug, no neomycin) and expressed as % hair cell survival. HCmax is the maximum protection (hair cell survival) observed. • 6. If at least 50% hair cells survive, the HC50 (concentration that would produce 50% hair cell survival) is calculated as a linear extrapolation from the nearest concentrations of protective drug that produce hair cell survival below and above 50%. If less than 50% hair cells survive, the HC50 is not determined. 1× embryo media (standard lab EM): • 1 mM MgSO4, • 0.15 mM KH2PO4, • 0.05 mM Na2HPO4, • 1 mM CaCl2, • 0.5 mM KCl • 15 mM NaCl • 0.7 mM NaHCO3

Compound	Emax at 25 µM [%]	EC50 [µM]	Emax at 8.3 µM [%]	Emax at 2.8 µM [%]
CN1CCC(N2CCc3c(sc(NC(=O)Nc4ccc(Cl)cc4)c3C(N)=O)C2)CC1 [Example 8, 2-[3-(4-Chlorophenyl)ureido]-6-(1-methylpiperidin-4-yl)-4,5,6,7-tetrahydrothieno[2,3-c]pyridine-3-carboxamide dihydrochloride]	84	> 10		
CC[N+]1(C)CCc2c(ccc(NC(=O)Nc3ccc(Cl)cc3)c2C(N)=O)C1 (stereo not drawn) [Example 172, 5-Carbamoyl-6-[3-(4-chlorophenyl)ureido]-2-ethyl-2-methyl-1,2,3,4-tetrahydroisoquinolin-2-ium iodide]	66	> 10		
CCN1CCc2c(sc(NC(=O)Nc3cccc(Cl)c3Cl)c2C(N)=O)C1 [Example 74, 2-[3-(2,3-Dichlorophenyl)ureido]-6-ethyl-4,5,6,7-tetrahydrothieno[2,3-c]pyridine-3-carboxamide hydrochloride]	54	> 10		
CCCC[N+]1(C)CCc2c(sc(NC(=O)Nc3ccc(Cl)cc3)c2C(N)=O)C1 (stereo not drawn) [Example 219, 6-butyl-3-carbamoyl-2-{[(4-chlorophenyl)carbamoyl]amino}-6-methyl-4H,5H,6H,7H-thieno[2,3-c]pyridin-6-ium]	92	< 1		
CC(C)(C)OC(=O)C1CC([N+]2(C)CCc3c(sc(NC(=O)Nc4ccc(Cl)cc4)c3C(N)=O)C2)C1 (stereo not drawn) [Example 163, 6-[3-(tert-Butoxycarbonyl)cyclobutyl]-3-carbamoyl-2-[3-(4-chlorophenyl)ureido]-6-methyl-4,5,6,7-tetrahydrothieno[2,3-c]pyridin-6-ium iodide]		< 1	88	
CCN1CCc2c(ccc(NC(=O)Nc3ccc(Cl)cc3)c2C(N)=O)C1 [Example 112, 6-[3-(4-chlorophenyl)ureido]-2-ethyl-1,2,3,4-tetrahydroisoquinoline-5-carboxamide hydrochloride]	49			
NC(=O)c1c(NC(=O)Nc2ccc(Cl)cc2)sc2c1CCN(CC(=O)O)C2 [Example 61, 2-{3-Carbamoyl-2-[3-(4-chlorophenyl)ureido]-4,5-dihydrothieno[2,3-c]pyridin-6(7H)-yl}acetic acid hydrochloride]	24			
CN(C)C(=O)CCCN1CCc2c(sc(NC(=O)Nc3ccc(Cl)cc3)c2C(N)=O)C1 [Example 23, 2-[3-(4-Chlorophenyl)ureido]-6-[4-(dimethylamino)-4-oxobutyl]-4,5,6,7-tetrahydrothieno[2,3-c]pyridine-3-carboxamide hydrochloride]				43
NC(=O)c1c(NC(=O)Nc2ccc(Cl)cc2)sc2c1CC1CCC2N1CC1CCCCC1 (racemic) [Example 131, (+/−)-2-[3-(4-chlorophenyl)ureido]-9-(cyclohexylmethyl)-5,6,7,8-tetrahydro-4H-5,8-epiminocyclohepta[b]thiophene-3-carboxamide hydrochloride]		< 1		88
NC(=O)c1c(NC(=O)Nc2ccc(Cl)cc2)sc2c1CCN(CCCNC(=O)C1CC1)C2 [Example 215, 2-{[(4-chlorophenyl)carbamoyl]amino}-6-[3-(cyclopropylformamido)propyl]-4H,5H,6H,7H-thieno[2,3-c]pyridine-3-carboxamide]	95	1 to 10		
CC[N+]1(C)CCc2c(sc(NC(=O)Nc3ccc4cc(F)ccc4c3)c2C(N)=O)C1 (stereo not drawn) [Example 180, 3-Carbamoyl-6-ethyl-2-[3-(6-fluoronaphthalen-2-yl)ureido]-6-methyl-4,5,6,7-tetrahydrothieno[2,3-c]pyridin-6-ium iodide]	102	1 to 10		
C[N+]1(C)C2CCC1c1sc(NC(=O)Nc3ccc(Cl)cc3)c(C(N)=O)c1C2 (racemic) [Example 188, (+/−)-3-Carbamoyl-2-[3-(4-chlorophenyl)ureido]-9,9-dimethyl-5,6,7,8-tetrahydro-4H-thienocyclohepten-5,8-iminium iodide]	59	1 to 10		
NC(=O)c1c(NC(=O)Nc2ccc(Cl)cc2)sc2c1CCN(CCCNC(=O)CCc1ccccc1)C2 [Example 210, 2-{[(4-chlorophenyl)carbamoyl]amino}-6-[3-(3-phenylpropanamido)propyl]-4H,5H,6H,7H-thieno[2,3-c]pyridine-3-carboxamide]	99	< 1		
C[N+]1(CC2CCC2)C2CCC1c1sc(NC(=O)Nc3ccc(Cl)cc3)c(C(N)=O)c1C2 (racemic) [Example 189, (+/−)-3-Carbamoyl-2-[3-(4-chlorophenyl)ureido]-9-(cyclobutylmethyl)-9-methyl-5,6,7,8-tetrahydro-4H-thienocyclohepten-5,8-iminium trifluoroacetate]	96	1 to 10		
CC(C)(C)OC(=O)NCCN1CCc2c(sc(NC(=O)Nc3ccc(Cl)cc3)c2C(N)=O)C1 [Example 10, tert-Butyl 2-{3-carbamoyl-2-[3-(4-chlorophenyl)ureido]-4,5-dihydrothieno[2,3-c]pyridin-6(7H)-yl}ethylcarbamate]			13	
CC(C)(C)OC(=O)CCCCC[N+]1(C)CCc2c(sc(NC(=O)Nc3ccc(Cl)cc3)c2C(N)=O)C1 (stereo not drawn) [Example 156, 6-(6-tert-Butoxy-6-oxohexyl)-3-carbamoyl-2-[3-(4-chlorophenyl)ureido]-6-methyl-4,5,6,7-tetrahydrothieno[2,3-c]pyridin-6-ium iodide]		< 1		96
CC(C)C[N+]1(C)CCc2c(sc(NC(=O)Nc3ccc(Cl)c4ccccc34)c2C(N)=O)C1 (stereo not drawn) [Example 181, 3-Carbamoyl-2-[3-(4-chloronaphthalen-1-yl)ureido]-6-isobutyl-6-methyl-4,5,6,7-tetrahydrothieno[2,3-c]pyridin-6-ium iodide]	93	1 to 10		
CCN1CCc2c(sc(NC(=O)Nc3cncc(Cl)c3)c2C(N)=O)C1 [Example 77, 2-[3-(5-Chloropyridin-3-yl)ureido]-6-ethyl-4,5,6,7-tetrahydrothieno[2,3-c]pyridine-3-carboxamide dihydrochloride]	45			
CCN1CCc2c(sc(NC(=O)Nc3ccc4c(c3)OC(F)(F)O4)c2C(N)=O)C1 [Example 85, 2-[3-(2,2-Difluorobenzo[d][1,3]dioxol-5-yl)ureido]-6-ethyl-4,5,6,7-tetrahydrothieno[2,3-c]pyridine-3-carboxamide hydrochloride]	63	1 to 10		
CCN1CCc2c(sc(NC(=O)Nc3ccc(Cl)cc3Cl)c2C(N)=O)C1 [Example 229, 2-{[(2,4-dichlorophenyl)carbamoyl]amino}-6-ethyl-4H,5H,6H,7H-thieno[2,3-c]pyridine-3-carboxamide]	54	> 10		
CCN1C2CCC1c1sc(NC(=O)Nc3ccc(Cl)cc3)c(C(N)=O)c1C2 (racemic) [Example 133, (+/−)-2-[3-(4-Chlorophenyl)ureido]-9-ethyl-5,6,7,8-tetrahydro-4H-5,8-epiminocyclohepta[b]thiophene-3-carboxamide hydrochloride]	76	< 1		
NC(=O)c1c(NC(=O)Nc2ccc(Cl)cc2)sc2c1CCN(CCCNC(=O)CCc1cccnc1)C2 [Example 211, 2-{[(4-chlorophenyl)carbamoyl]amino}-6-{3-[3-(pyridin-3-yl)propanamido]propyl}-4H,5H,6H,7H-thieno[2,3-c]pyridine-3-carboxamide]	95	< 1		
CC(C)(C)OC(=O)CCC[N+]1(C)CCc2c(sc(NC(=O)Nc3ccc(Cl)cc3)c2C(N)=O)C1 (stereo not drawn) [Example 154, 6-(4-tert-Butoxy-4-oxobutyl)-3-carbamoyl-2-[3-(4-chlorophenyl)ureido]-6-methyl-4,5,6,7-tetrahydrothieno[2,3-c]pyridin-6-ium trifluoroacetate]		< 1		96
CCN1CCc2c(sc(NC(=O)Nc3cn(C)c4ccccc34)c2C(N)=O)C1 [Example 82, 6-Ethyl-2-[3-(1-methyl-1H-indol-3-yl)ureido]-4,5,6,7-tetrahydrothieno[2,3-c]pyridine-3-carboxamide hydrochloride]	23			
